Here are results for 2 molecules from publication PMC9944328 (Nature Communications, 2023).

In general, Emax refers to the greatest response seen or fitted, relative to the assay's reference.

The test deals with SSTR2 mutants (Homo sapiens, UniProt P30874, R140A).
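Further: Read-out is the BRET ratio between Nluc-fused β-arrestin 1 and the early endosome marker FYVE-mVenus, measured after ligand addition with coelenterazine h as substrate.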

SSTR2 mutants, sequence (P30874 whole entry R140A, the tested form may be a part): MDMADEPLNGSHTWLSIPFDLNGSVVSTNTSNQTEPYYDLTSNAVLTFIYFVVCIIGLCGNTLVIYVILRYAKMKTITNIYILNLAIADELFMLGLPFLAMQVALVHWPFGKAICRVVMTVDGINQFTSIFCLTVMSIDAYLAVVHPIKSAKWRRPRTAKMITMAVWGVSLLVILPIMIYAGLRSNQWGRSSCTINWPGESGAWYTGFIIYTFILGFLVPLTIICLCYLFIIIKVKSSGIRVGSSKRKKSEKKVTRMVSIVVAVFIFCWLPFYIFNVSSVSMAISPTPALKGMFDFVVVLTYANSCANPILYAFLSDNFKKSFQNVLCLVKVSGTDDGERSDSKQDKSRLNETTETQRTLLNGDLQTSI

Molecule `C[C@@H](O)[C@@H]1NC(=O)[C@H](CCCCN)NC(=O)[C@@H](Cc2c[nH]c3ccccc23)NC(=O)[C@H](Cc2ccccc2)NC(=O)[C@@H](NC(=O)[C@H](N)Cc2ccccc2)CSSC[C@@H](C(=O)N[C@H](CO)[C@@H](C)O)NC1=O` [octreotide] came in with an Emax of 48.4 ± 0.93%. The result for `N#Cc1cccc(-c2ccc3ncc(-c4cc(F)cc(F)c4)c(N4CCC(N)CC4)c3c2)c1O` [paltusotine] reads 50.9 ± 2.01%.
